From ChEMBL document CHEMBL1201862, “PubChem BioAssay data set” (2004)
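Protocol summary: plate cells (96-well), add compound at 5 concentrations, incubate 48 h, interpolate endpoints linearly. GI50 is the concentration that inhibits growth by half.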 The source made the active and inactive calls. Cut-off read from the data, not from the text of the source: active = GI50 up to about 1.1 µM and inactive = higher. Where a SMILES comes first, the peptide text is derived from it. The star is where a group is joined. Boc = CC(C)(C)OC(=O)*

Tests used:
Experiment in all cases: NCI-60 cell line screen, 48 h
[1] = system: MDA-MB-435
[2] = system: IGROV-1
[3] = system: ACHN
[4] = system: MDA-MB-231
[5] = system: UO-31
[6] = system: SK-MEL-5
[7] = system: SNB-19
[8] = system: HCC 2998
[9] = system: EKVX
[10] = system: Hs-578T
[11] = system: 786-0
[12] = system: HCT-15
[13] = system: T47D
[14] = system: OVCAR-4
[15] = system: UACC-62
[16] = system: OVCAR-8
[17] = system: LOX IMVI
[18] = system: CCRF-CEM
[19] = system: COLO 205

| SMILES | GI50 [1] | GI50 [2] | GI50 [3] | GI50 [4] | GI50 [5] | GI50 [6] | GI50 [7] | GI50 [8] | GI50 [9] | GI50 [10] | GI50 [11] | GI50 [12] [µM] | GI50 [13] | GI50 [14] | GI50 [15] | GI50 [16] | GI50 [17] | GI50 [18] | GI50 [19] |
| --- | --- | --- | --- | --- | --- | --- | --- | --- | --- | --- | --- | --- | --- | --- | --- | --- | --- | --- | --- |
| CC(CCc1nc2ccccc2s1)(c1ccc(O)cc1)c1ccc(O)cc1 | 16.1 µM (inactive) | 14.2 µM (inactive) | 18.3 µM (inactive) | 17.9 µM (inactive) | 16.1 µM (inactive) | 18.4 µM (inactive) | 17.5 µM (inactive) | 19.7 µM (inactive) | 16.8 µM (inactive) | 20.4 µM (inactive) | 15.1 µM (inactive) | 18.4 | 24.8 µM (inactive) | 19.1 µM (inactive) | 15.9 µM (inactive) | 21.7 µM (inactive) | 16 µM (inactive) |  |  |
| Cc1cnc2cc(Cl)ccc2c1SCC(=O)O | > 100 µM (inactive) | > 100 µM (inactive) | > 100 µM (inactive) | > 100 µM (inactive) | > 100 µM (inactive) | > 100 µM (inactive) | > 100 µM (inactive) |  | > 100 µM (inactive) | 93.5 µM (inactive) | > 100 µM (inactive) | > 100 | > 100 µM (inactive) | > 100 µM (inactive) | > 100 µM (inactive) | > 100 µM (inactive) | > 100 µM (inactive) | > 100 µM (inactive) |  |
| O=C(O)CSc1ncccc1[N+](=O)[O-] | > 100 µM (inactive) | > 100 µM (inactive) | > 100 µM (inactive) | > 100 µM (inactive) | > 100 µM (inactive) | > 100 µM (inactive) | > 100 µM (inactive) |  | > 100 µM (inactive) | > 100 µM (inactive) | > 100 µM (inactive) | > 100 | > 100 µM (inactive) | > 100 µM (inactive) | > 100 µM (inactive) | > 100 µM (inactive) | > 100 µM (inactive) | > 100 µM (inactive) | > 100 µM (inactive) |
| CC(=O)NC(Cc1c[nH]c2ccccc12)C(=O)O (stereo not drawn) | > 100 µM (inactive) | > 100 µM (inactive) | > 100 µM (inactive) | > 100 µM (inactive) | > 100 µM (inactive) | > 100 µM (inactive) | > 100 µM (inactive) |  | > 100 µM (inactive) | > 100 µM (inactive) | > 100 µM (inactive) | > 100 | > 100 µM (inactive) | > 100 µM (inactive) | > 100 µM (inactive) | > 100 µM (inactive) | > 100 µM (inactive) | > 100 µM (inactive) | > 100 µM (inactive) |
| CCCCCCSc1nc(COC(=O)NC)c(COC(=O)NC)n1C | > 100 µM (inactive) | > 100 µM (inactive) | > 100 µM (inactive) | > 100 µM (inactive) | > 100 µM (inactive) | > 100 µM (inactive) | > 100 µM (inactive) |  | > 100 µM (inactive) | > 100 µM (inactive) | > 100 µM (inactive) | > 100 | > 100 µM (inactive) | > 100 µM (inactive) | > 100 µM (inactive) | > 100 µM (inactive) | > 100 µM (inactive) | > 100 µM (inactive) | > 100 µM (inactive) |
| COc1cc(/C=C2\C(=O)N(Cc3ccccc3)C(c3ccccc3)S2(=O)=O)cc(OC)c1OC (stereo not drawn) | 41.9 µM (inactive) |  | 67.3 µM (inactive) | > 100 µM (inactive) | 21.8 µM (inactive) | 12 µM (inactive) | > 100 µM (inactive) | > 100 µM (inactive) | 17.1 µM (inactive) | 9.73 µM (inactive) | 29.6 µM (inactive) | 27.5 | 29.2 µM (inactive) | 17.5 µM (inactive) | 35.2 µM (inactive) | 37.2 µM (inactive) | 27.5 µM (inactive) | 36.5 µM (inactive) | 21.3 µM (inactive) |
| O=[N+]([O-])/C(C(Cl)=C(Cl)Cl)=C(\Nc1cccc2cccnc12)Sc1ccccc1 | 18.7 µM (inactive) |  | 22.8 µM (inactive) | 18.2 µM (inactive) | 18.9 µM (inactive) |  | 31.6 µM (inactive) | 78.2 µM (inactive) | 27.4 µM (inactive) | 13.4 µM (inactive) | 20 µM (inactive) | 17.5 | 18.3 µM (inactive) | 23.1 µM (inactive) | 11.1 µM (inactive) |  |  | 27.7 µM (inactive) | 17.1 µM (inactive) |
| CC(C#N)Nc1ccc(Oc2ccc(C(C)(C)c3ccc(Oc4ccc(NC(C)C#N)cc4)cc3)cc2)cc1 (stereo not drawn) | > 100 µM (inactive) | > 100 µM (inactive) | > 100 µM (inactive) | > 100 µM (inactive) | 5.08 µM (inactive) | 50.6 µM (inactive) | > 100 µM (inactive) | 22.3 µM (inactive) | > 100 µM (inactive) | 18 µM (inactive) | > 100 µM (inactive) | > 100 | 0.409 µM (active) | > 100 µM (inactive) | > 100 µM (inactive) | > 100 µM (inactive) | > 100 µM (inactive) |  | > 100 µM (inactive) |
| Clc1nc(Nc2nc3ccccc3[nH]2)nc(Cl)c1Cc1ccccc1 | > 100 µM (inactive) | 97.3 µM (inactive) | 85.7 µM (inactive) | 30.7 µM (inactive) | > 100 µM (inactive) | > 100 µM (inactive) | 93.1 µM (inactive) |  | > 100 µM (inactive) | 32.4 µM (inactive) | 45.9 µM (inactive) | 40.2 | 89.3 µM (inactive) | 36.1 µM (inactive) | 72.4 µM (inactive) | > 100 µM (inactive) |  | 63.5 µM (inactive) | > 100 µM (inactive) |
| Nc1nc(N)c2ncn(-c3ccc(Cl)c(Cl)c3)c2n1 | 33.7 µM (inactive) | 16.2 µM (inactive) | 42.2 µM (inactive) | 23.1 µM (inactive) | 18.5 µM (inactive) | 31.2 µM (inactive) | 57 µM (inactive) | 27.4 µM (inactive) | 25.5 µM (inactive) | 15 µM (inactive) | 14.1 µM (inactive) | 26 | 42.1 µM (inactive) | 33.3 µM (inactive) | 10.1 µM (inactive) | 24.5 µM (inactive) |  | 3.71 µM (inactive) | 14.9 µM (inactive) |
| CC1SCCc2nc3ccccc3n21 (stereo not drawn) | > 100 µM (inactive) | > 100 µM (inactive) |  | > 100 µM (inactive) | > 100 µM (inactive) | > 100 µM (inactive) | > 100 µM (inactive) | > 100 µM (inactive) | > 100 µM (inactive) | > 100 µM (inactive) | > 100 µM (inactive) | > 100 | > 100 µM (inactive) | > 100 µM (inactive) | > 100 µM (inactive) | > 100 µM (inactive) | > 100 µM (inactive) | > 100 µM (inactive) | > 100 µM (inactive) |
| CSc1nc2ccccc2c(=O)n1/N=C1\C(=O)N(CN2CCOCC2)c2ccc(Cl)cc21 | 28.4 µM (inactive) | 16.8 µM (inactive) | 26.1 µM (inactive) | 47.4 µM (inactive) | 28.1 µM (inactive) | 38.7 µM (inactive) | 46.8 µM (inactive) |  | 2.6 µM (inactive) | 44.2 µM (inactive) | 34.8 µM (inactive) | 22.9 | 16.5 µM (inactive) | 33.8 µM (inactive) | 6.68 µM (inactive) | 39.6 µM (inactive) | 15.2 µM (inactive) | 10.6 µM (inactive) | 17.1 µM (inactive) |
| Nc1ncnc2c1ncn2CC(OCP(=O)(O)O)Oc1ccccc1 (stereo not drawn) | > 100 µM (inactive) |  | > 100 µM (inactive) | > 100 µM (inactive) | > 100 µM (inactive) | > 100 µM (inactive) | > 100 µM (inactive) | > 100 µM (inactive) | > 100 µM (inactive) | > 100 µM (inactive) | > 100 µM (inactive) | > 100 | > 100 µM (inactive) | > 100 µM (inactive) | > 100 µM (inactive) |  | > 100 µM (inactive) | > 100 µM (inactive) | > 100 µM (inactive) |
| COc1cc2c3c(n(C)c(=O)c2cc1OC)-c1cc2c(cc1/C3=C\CCCCl)OCO2 |  | 25.4 µM (inactive) | 29.7 µM (inactive) | 27.3 µM (inactive) | 53.8 µM (inactive) | 25.6 µM (inactive) | 44.9 µM (inactive) | 23 µM (inactive) | 54.6 µM (inactive) | 47.4 µM (inactive) | 16.7 µM (inactive) | > 100 | 30.3 µM (inactive) | 49.7 µM (inactive) |  | 49.4 µM (inactive) | 39 µM (inactive) | 8.95 µM (inactive) | 32.9 µM (inactive) |
| O=C(O)c1cc2ccccc2c(/N=N/c2ccc(S(=O)(=O)Nc3nccs3)cc2)c1O | > 100 µM (inactive) | > 100 µM (inactive) | > 100 µM (inactive) | > 100 µM (inactive) | > 100 µM (inactive) | > 100 µM (inactive) |  | > 100 µM (inactive) | > 100 µM (inactive) | > 100 µM (inactive) | > 100 µM (inactive) | > 100 | > 100 µM (inactive) | > 100 µM (inactive) | > 100 µM (inactive) | > 100 µM (inactive) |  | > 100 µM (inactive) | > 100 µM (inactive) |
| COC(=O)CNC(=O)C(Cc1ccccc1)NC(=O)C(CCSC)NC(=O)C(Cc1ccc(O)cc1)NC(=O)OC(C)(C)C (stereo not drawn) (Boc-YMFG-OMe; configuration not given here) | > 100 µM (inactive) | 62.7 µM (inactive) | > 100 µM (inactive) | 24.5 µM (inactive) | > 100 µM (inactive) | > 100 µM (inactive) | 37.8 µM (inactive) | 23.2 µM (inactive) |  | > 100 µM (inactive) | > 100 µM (inactive) | > 100 | 32.4 µM (inactive) | > 100 µM (inactive) | 30.1 µM (inactive) | 39.9 µM (inactive) | 18.5 µM (inactive) |  | 79.3 µM (inactive) |
